Read-outs that look alike come from different tables or passages of the source.
How the values were obtained:
[1] = system: Staphylococcus aureus X1.1; experiment: MIC, standard agar-dilution assay; type: cell-based
[2] = system: Staphylococcus aureus V41; experiment: MIC, standard agar-dilution assay; type: cell-based
[3] = system: Staphylococcus aureus X400; experiment: MIC, standard agar-dilution assay; type: cell-based; details: Staphylococcus aureus X400, methicillin-resistant strain
[4] = system: Staphylococcus aureus S13E; type: cell-based; details: agar dilution
[5] = system: Staphylococcus epidermidis EPI1; type: cell-based
[6] = system: Staphylococcus epidermidis EPI2; experiment: MIC, standard agar-dilution assay; type: cell-based
[7] = system: Streptococcus pyogenes C203; experiment: MIC, standard agar-dilution assay; type: cell-based
[8] = system: Streptococcus pneumoniae Park I; type: cell-based; details: agar dilution
[9] = system: Streptococcus Group D X66; experiment: MIC, standard agar-dilution assay; type: cell-based
Streptococcus Group 9960 = experiment: MIC, standard agar-dilution assay; type: cell-based
[10] = system: Haemophilus influenzae C.L.; experiment: MIC, standard agar-dilution assay; type: cell-based; details: ampicillin-sensitive strain
[11] = system: Haemophilus influenzae 76; experiment: MIC, standard agar-dilution assay; type: cell-based; details: Haemophilus influenzae 76, ampicillin-resistant strain
Staphylococcus aureus = experiment: ED50 in experimentally infected mice; type: in vivo; details: mice infected with Staphylococcus aureus; administered subcutaneously 1 and 4 hours postinfection
[12] = Staphylococcus aureus X1.1, agar dilution
[13] = Staphylococcus aureus V41, penicillin-resistant strain, agar dilution
[14] = Staphylococcus epidermidis EPI1, agar dilution
[15] = Streptococcus pyogenes C203, agar dilution
[16] = Streptococcus Group D X66, agar dilution
[17] = Streptococcus Group 9960, agar dilution

## N--[N--(t-Boc)--L-phenylalanyl)A47934 [Example 23]
[1]; [12]
  MIC: 0.125 µg/mL
[2]; [13]
  MIC: 0.125 µg/mL
[3]
  MIC: 0.25 µg/mL
[4]
  MIC: 0.125 µg/mL
[5]; [14]
  MIC: 0.125 µg/mL
[6]
  MIC: 0.5 µg/mL
[7]; [15]
  MIC: 0.5 µg/mL
[8]
  MIC: 0.125 µg/mL
[9]; [16]
  MIC: 1 µg/mL
Streptococcus Group 9960; [17]
  MIC: 2 µg/mL
[10]
  MIC: 8 µg/mL
[11]
  MIC: 8 µg/mL

## N--[(3-sydnone)acetyl]A35512B [Example 12]
[1]
  MIC: 4 µg/mL
[2]
  MIC: 8 µg/mL
[3]
  MIC: 16 µg/mL
[4]
  MIC: 8 µg/mL
[5]
  MIC: 8 µg/mL
[6]
  MIC: 16 µg/mL
[7]
  MIC: 2 µg/mL
[8]
  MIC: 2 µg/mL
[9]
  MIC: 8 µg/mL
Streptococcus Group 9960
  MIC: 8 µg/mL
Staphylococcus aureus
  ED50: 10.97 mg/kg × 2

## N--[N--(t-Boc)--L-phenylalanyl)A41030A [Example 16]
[1]; [12]
  MIC: 0.25 µg/mL
[2]; [13]
  MIC: 0.25 µg/mL
[3]
  MIC: 0.5 µg/mL
[4]
  MIC: 0.25 µg/mL
[5]; [14]
  MIC: 0.25 µg/mL
[6]
  MIC: 0.5 µg/mL
[7]; [15]
  MIC: 0.5 µg/mL
[8]
  MIC: 0.5 µg/mL
[9]; [16]
  MIC: 1 µg/mL
Streptococcus Group 9960; [17]
  MIC: 0.125 µg/mL
[10]
  MIC: 32 µg/mL
[11]
  MIC: 32 µg/mL

## N--(nonanoyl)A35512B pseudoaglycone [Example 13]
[1]; [12]
  MIC: 2 µg/mL
[2]; [13]
  MIC: 2 µg/mL
[3]
  MIC: 2 µg/mL
[4]
  MIC: 2 µg/mL
[5]; [14]
  MIC: 2 µg/mL
[6]
  MIC: 4 µg/mL
[7]; [15]
  MIC: 2 µg/mL
[8]
  MIC: 4 µg/mL
[9]; [16]
  MIC: 4 µg/mL
Streptococcus Group 9960; [17]
  MIC: 2 µg/mL
[10]
  MIC: -- (Compound not active at less than 128 mcg/ml)
[11]
  MIC: -- (Compound not active at less than 128 mcg/ml)

## N--[p-(dodecyloxy)phenylpropanoyl]A35512B [Example 9]
[1]; [12]
  MIC: 4 µg/mL
[2]; [13]
  MIC: 8 µg/mL
[3]
  MIC: 8 µg/mL
[4]
  MIC: 8 µg/mL
[5]; [14]
  MIC: 16 µg/mL
[6]
  MIC: 16 µg/mL
[7]; [15]
  MIC: 2 µg/mL
[8]
  MIC: 2 µg/mL
[9]; [16]
  MIC: 4 µg/mL
Streptococcus Group 9960; [17]
  MIC: 4 µg/mL
Staphylococcus aureus
  ED50: 70 mg/kg × 2

## N--(11-aminoundecanoyl)A35512B [Example 7]
[1]; [12]
  MIC: 4 µg/mL
[2]; [13]
  MIC: 4 µg/mL
[3]
  MIC: 8 µg/mL
[4]
  MIC: 4 µg/mL
[5]; [14]
  MIC: 8 µg/mL
[6]
  MIC: 16 µg/mL
[7]; [15]
  MIC: 2 µg/mL
[8]
  MIC: 4 µg/mL
[9]; [16]
  MIC: 4 µg/mL
Streptococcus Group 9960; [17]
  MIC: 4 µg/mL
[10]
  MIC: -- (Compound not active at less than 128 mcg/ml)
[11]
  MIC: -- (Compound not active at less than 128 mcg/ml)
Staphylococcus aureus
  ED50: 4.5 mg/kg × 2

## N-[N-(tert-butoxycarbonyl)-L-phenylalanyl]-A35512B [Example 1]
[1]; [12]
  MIC: 8 µg/mL
[2]; [13]
  MIC: 8 µg/mL
[3]
  MIC: 16 µg/mL
[4]
  MIC: 8 µg/mL
[5]; [14]
  MIC: 8 µg/mL
[6]
  MIC: 32 µg/mL
[7]; [15]
  MIC: 1 µg/mL
[8]
  MIC: 2 µg/mL
[9]; [16]
  MIC: 4 µg/mL
Streptococcus Group 9960; [17]
  MIC: 2 µg/mL

## N--[N--(t-Boc)--11-aminoundecanoyl)A35512B [Example 6]
[1]; [12]
  MIC: 2 µg/mL
[2]; [13]
  MIC: 4 µg/mL
[3]
  MIC: 4 µg/mL
[4]
  MIC: 4 µg/mL
[5]; [14]
  MIC: 8 µg/mL
[6]
  MIC: 8 µg/mL
[7]; [15]
  MIC: 1 µg/mL
[8]
  MIC: 1 µg/mL
[9]; [16]
  MIC: 2 µg/mL
Streptococcus Group 9960; [17]
  MIC: 4 µg/mL

## N-(L-phenylalanyl)A35512B [Example 2]
[1]; [12]
  MIC: 4 µg/mL
[2]; [13]
  MIC: 4 µg/mL
[3]
  MIC: 8 µg/mL
[4]
  MIC: 4 µg/mL
[5]; [14]
  MIC: 4 µg/mL
[6]
  MIC: 8 µg/mL
[7]; [15]
  MIC: 2 µg/mL
[8]
  MIC: 4 µg/mL
[9]; [16]
  MIC: 4 µg/mL
Streptococcus Group 9960; [17]
  MIC: 4 µg/mL
Staphylococcus aureus
  ED50: 5.87 mg/kg × 2

## N--[N--(t-Boc)--D-phenylglycyl]A35512B [Example 4]
[1]; [12]
  MIC: 4 µg/mL
[2]; [13]
  MIC: 8 µg/mL
[3]
  MIC: 16 µg/mL
[4]
  MIC: 8 µg/mL
[5]; [14]
  MIC: 8 µg/mL
[6]
  MIC: 16 µg/mL
[7]; [15]
  MIC: 2 µg/mL
[8]
  MIC: 2 µg/mL
[9]; [16]
  MIC: 8 µg/mL
Streptococcus Group 9960; [17]
  MIC: 4 µg/mL
[10]
  MIC: -- (Compound not active at less than 128 mcg/ml)
[11]
  MIC: -- (Compound not active at less than 128 mcg/ml)

## N--(11-aminoundecanoyl)A35512B pseudoaglycone [Example 15]
[1]; [12]
  MIC: 1 µg/mL
[2]; [13]
  MIC: 1 µg/mL
[3]
  MIC: 1 µg/mL
[4]
  MIC: 1 µg/mL
[5]; [14]
  MIC: 2 µg/mL
[6]
  MIC: 2 µg/mL
[7]; [15]
  MIC: 1 µg/mL
[8]
  MIC: -- (Compound not active at less than 128 mcg/ml)
[9]; [16]
  MIC: 2 µg/mL
Streptococcus Group 9960; [17]
  MIC: 2 µg/mL
[10]
  MIC: -- (Compound not active at less than 128 mcg/ml)
[11]
  MIC: -- (Compound not active at less than 128 mcg/ml)

## N--(nonanoyl)A35512B [Example 8]
[1]; [12]
  MIC: 2 µg/mL
[2]; [13]
  MIC: 2 µg/mL
[3]
  MIC: 2 µg/mL
[4]
  MIC: 2 µg/mL
[5]; [14]
  MIC: 2 µg/mL
[6]
  MIC: 4 µg/mL
[7]; [15]
  MIC: 2 µg/mL
[8]
  MIC: 4 µg/mL
[9]; [16]
  MIC: 4 µg/mL
Streptococcus Group 9960; [17]
  MIC: 2 µg/mL
Staphylococcus aureus
  ED50: 11.34 mg/kg × 2

## N--(L-phenylalanyl)A47934 [Example 24]
[1]; [12]
  MIC: 0.06 µg/mL
[2]; [13]
  MIC: 0.06 µg/mL
[3]
  MIC: 0.25 µg/mL
[4]
  MIC: 0.06 µg/mL
[5]; [14]
  MIC: 0.125 µg/mL
[6]
  MIC: 0.25 µg/mL
[7]; [15]
  MIC: 0.25 µg/mL
[8]
  MIC: 0.06 µg/mL
[9]; [16]
  MIC: 0.5 µg/mL
Streptococcus Group 9960; [17]
  MIC: 1 µg/mL
[10]
  MIC: 4 µg/mL
[11]
  MIC: 4 µg/mL
Staphylococcus aureus
  ED50: < 0.31 mg/kg × 2

## N--[N--(t-Boc)--11-aminoundecanoyl]A35512B pseudoaglycone [Example 14]
[1]; [12]
  MIC: 8 µg/mL
[2]; [13]
  MIC: 8 µg/mL
[3]
  MIC: 8 µg/mL
[4]
  MIC: 8 µg/mL
[5]; [14]
  MIC: 4 µg/mL
[6]
  MIC: 16 µg/mL
[7]; [15]
  MIC: 4 µg/mL
[8]
  MIC: 4 µg/mL
[9]; [16]
  MIC: 4 µg/mL
Streptococcus Group 9960; [17]
  MIC: 8 µg/mL
[10]
  MIC: -- (Compound not active at less than 128 mcg/ml)
[11]
  MIC: -- (Compound not active at less than 128 mcg/ml)

## N--[N--(hexanoyl)-L-tryptophyl]A35512B [Example 3]
[1]; [12]
  MIC: 4 µg/mL
[2]; [13]
  MIC: 8 µg/mL
[3]
  MIC: 8 µg/mL
[4]
  MIC: 4 µg/mL
[5]; [14]
  MIC: 8 µg/mL
[6]
  MIC: 8 µg/mL
[7]; [15]
  MIC: 1 µg/mL
[8]
  MIC: 1 µg/mL
[9]; [16]
  MIC: 4 µg/mL
Streptococcus Group 9960; [17]
  MIC: 2 µg/mL
Staphylococcus aureus
  ED50: 10.84 mg/kg × 2

## N--(D-phenylglycyl)A35512B [Example 5]
[1]; [12]
  MIC: 4 µg/mL
[2]; [13]
  MIC: 4 µg/mL
[3]
  MIC: 8 µg/mL
[4]
  MIC: 8 µg/mL
[5]; [14]
  MIC: 4 µg/mL
[6]
  MIC: 8 µg/mL
[7]; [15]
  MIC: 2 µg/mL
[8]
  MIC: 4 µg/mL
[9]; [16]
  MIC: 8 µg/mL
Streptococcus Group 9960; [17]
  MIC: 4 µg/mL
Staphylococcus aureus
  ED50: 14.4 mg/kg × 2

## N--(3,5-dichlorobenzoyl)A35512B [Example 11]
[1]; [12]
  MIC: 8 µg/mL
[2]; [13]
  MIC: 4 µg/mL
[3]
  MIC: 8 µg/mL
[4]
  MIC: 8 µg/mL
[5]; [14]
  MIC: 4 µg/mL
[6]
  MIC: 16 µg/mL
[7]; [15]
  MIC: 1 µg/mL
[8]
  MIC: 1 µg/mL
[9]; [16]
  MIC: 4 µg/mL
Streptococcus Group 9960; [17]
  MIC: 2 µg/mL
[10]
  MIC: -- (Compound not active at less than 128 mcg/ml)
[11]
  MIC: -- (Compound not active at less than 128 mcg/ml)
Staphylococcus aureus
  ED50: 11.8 mg/kg × 2

## N--[(1-tetrazole)acetyl]A35512B [Example 10]
[1]; [12]
  MIC: 4 µg/mL
[2]; [13]
  MIC: 4 µg/mL
[3]
  MIC: 8 µg/mL
[4]
  MIC: 4 µg/mL
[5]; [14]
  MIC: 4 µg/mL
[6]
  MIC: 16 µg/mL
[7]; [15]
  MIC: 2 µg/mL
[8]
  MIC: 4 µg/mL
[9]; [16]
  MIC: 8 µg/mL
Streptococcus Group 9960; [17]
  MIC: 8 µg/mL
[10]
  MIC: -- (Compound not active at less than 128 mcg/ml)
[11]
  MIC: -- (Compound not active at less than 128 mcg/ml)
Staphylococcus aureus
  ED50: 5.7 mg/kg × 2

— patent US4497802A, “N-Acyl glycopeptide derivatives” (Eli Lilly and Company, priority 1983, dated 1985)
